Data set [1] relates to Phosphorylation of ERK1/2 in MIA PaCa-2 (G12C) cells. Put plainly: Phospho-ERK1/2 MSD Assay. The format is cell-based. To be noted: Homo sapiens; 2 h compound treatment, MIA PaCa-2 cells; read-out: basal p-ERK 2 h MIA PaCa-2 (G12C) IC50 IP. Here is the method:
Phospho-ERK1/2 MSD Assay: MIA PaCa-2 (ATCC® CRL-1420™) cells were cultured in RPMI 1640 Medium (ThermoFisher Scientific 11875093) containing 1% fetal bovine serum (ThermoFisher Scientific 16000044) and 1× penicillin-streptomycin-glutamine (ThermoFisher Scientific 10378016). Sixteen hours prior to compound treatment, MIA PaCa-2 cells were seeded in 96-well cell culture plates at a density of 25,000 cells/well and incubated at 37° C., 5% C02. A compound dose-response titration was diluted in growth media, added to appropriate wells of a cell culture plate, and then incubated at 37° C., 5% C02 for 2 or 4 hours (see Table 15). Following compound treatment, cells were washed with ice-cold Dulbecco's phosphate-buffered saline, no Ca^2+or Mg^2+(ThermoFisher Scientific 14190144), and then lysed in RIPA buffer (50 mM Tris-HCl pH 7.5, 1% Igepal, 0.5% sodium deoxycholate, 150 mM NaCl, and 0.5% sodium dodecyl sulfate) containing protease inhibitors (Roche 4693132001) and phosphatase inhibitors (Roche 4906837001). Phosphorylation of ERK1/2 in compound-treated lysates was assayed using Phospho-ERK1/2 Whole Cell Lysate kits (Meso Scale Discovery K151DWD) according to the manufacturer's protocol. Assay plates were read on a Meso Scale Discovery Sector Imager 6000, and data were analyzed using a 4-parameter logistic model to calculate IC50 values.

Data set [2] has as its target GDP-bound KRAS protein (aa 1-169) G12C/C118A (Homo sapiens (Human), UniProt P01116, C118A/G12C). In words: Coupled Nucleotide Exchange Assay (KRAS G12C). Type of data set: biochemical. The protocol:
(§1) Coupled Nucleotide Exchange Assay: Purified GDP-bound KRAS protein (aa 1-169), containing either G12C or G12D, as well as C118A amino acid substitutions and an N-terminal His-tag, was pre-incubated in assay buffer (25 mM HEPES pH 7.4, 10 mM MgCl2, and 0.01% Triton X-100) with a compound dose-response titration for either 5 min or 20 hours (see Table 15). Following compound pre-incubation, purified SOS protein (aa 564-1049) and GTP (Roche 10106399001) were added to the assay wells and incubated for an additional 30 min. To determine the extent of inhibition of SOS-mediated nucleotide exchange, purified GST-tagged cRAF (aa 1-149), nickel chelate AlphaLISA acceptor beads (PerkinElmer AL108R), and AlphaScreen glutathione donor beads (PerkinElmer 6765302) were added to the assay wells and incubated for 10 minutes. The assay plates were then read on a PerkinElmer EnVision Multilabel Reader, using AlphaScreen® technology, and data were analyzed using a 4-parameter logistic model to calculate IC50 values.

Data set [3] has as its target GDP-bound KRAS protein (aa 1-169) G12D/C118A (Homo sapiens (Human), UniProt P01116, C118A/G12D). Put plainly: Coupled Nucleotide Exchange Assay (KRAS G12D). Type of data set: biochemical. To be noted: 20 h compound pre-incubation; read-out: GDP KRAS G12D 20 h Coupled Exchange IC50 IP. Here is the method: as §1
The target of data set [4] is GDP-KRAS G12D (Homo sapiens, UniProt P01116, C118A/G12D). Put plainly: GDP-KRAS G12D RF-MS Assay. Type of data set: binding. Conditions: 100 μM inhibitor, 20 h incubation, 2 uM KRAS G12D. Here is the method:
GDP-KRAS G12D RF-MS Assay: MS assays were performed in the following buffer: 25 mM HEPES pH 7.4, 20 mM MgCl2, 10 mM NaCl, 3% DMSO, 0.0005% CHAPS with 100 μM GDP made fresh and added to the assay buffer. The final concentration of KRAS G12D was 2 uM. Assay incubation times were 20 h and the inhibitor concentration was 100 μM. Greiner polypropylene clear V-bottom plates were used for the mass spectrometry assays. Typically, the reaction was initiated by addition of KRAS G12D to a well containing inhibitor followed by Rapidfire MS analysis. Relative % Bound values at the various incubation times were used to estimate a kobs value at 100 uM inhibitor.
RapidFire Sample Liquid handling System: The RapidFire liquid handling unit used was the RF 360 model. Solvents were delivered by Agilent 1260 Infinity pumps. The instrument control software was the Agilent RapidFire High Throughput MS-system software (v4.0.12333.14274). A single C4 Type A (Agilent technologies, G9203) SPE-cartridge was used for these experiments. A volume of 10 μL (sample loop determined) was removed from each well of a 384-well plate by using an aspiration time of 300 ms. The sample load/wash time was 6000 ms at a flow rate of 1.25 mL/min (H2O, 0.1% v/v formic acid, 0.05% v/v trifluoroacetic acid); elution time was 7000 ms (acetonitrile, 0.1% v/v formic acid, 0.05% v/v trifluoroacetic acid); re-equilibration time was 700 ms at a flow rate of 1.25 mL/min (H2O, 0.1% v/v formic acid, 0.05% v/v trifluoroacetic acid).
Mass Spectrometry: Mass spectrometric data was acquired on an Agilent 6530 quadrupole time-of-flight (ToF) MS system, operated with a dual Agilent Jet Spray (AJS) ion source, in positive ionization mode. The instrument parameters were as follows: gas temperature 350° C.; drying gas 5 L/min; nebulizer 60 psi; sheath gas 350° C.; sheath gas flow 11 L/min; capillary 3.5 kV (0.037 μA); nozzle 1.75 kV; fragmentor 200 V; skimmer 75 V; octapole RF 800 V peak-to-peak. Data was acquired at the rate of 5 spectra/s. The mass scale was calibrated using the Agilent positive ion tune mix, over the m/z range 300-3200. The instrument control software was Agilent MassHunter Workstation Data Acquisition (vB.05.01).
Mass Spectrometry Data Processing and Informatics: All data processing was performed using a HP Z620, 64-bit, 12-processor, Windows 7 PC, using a combination of Agilent MassHunter Qualitative Analysis (B.05.00) Agilent RapidFire control software (v4.0.12333.14070) and the Agilent DA Reprocessor Offline Utilities B.05.00, Build 162. The SPE-MS data acquired from the RapidFire-MS system is typically a single SPE-MS data file composed of multiple injection events. For effective charge state extraction, SPE-peak integration and subsequent MS-spectral deconvolution, the single SPE-MS data file is split into single injection events. This is typically performed off-line and achieved through the RapidFire User Interface software, using the Agilent RapidFire control software (v4.0.12333.14070) using the Convert MS Data option. Once the individual injection-event MS-data files have been produced, they are all batch processed using the DA Reprocessor Offline Utilities (B.05.00, Build 162, Agilent). For batch processing a method file was created using Agilent MassHunter Qualitative Analysis B.05.00. The details of this method file are contained within the BioConfirm Workflow and are as follows: Integrate (MS), Integrator Selection: General, smooth option selected; detector point sampling 1; start threshold 5.0; stop threshold 0.0; filtering 5 point; peak location, top. Extract (MS): Peak Spectrum Extraction (MS) within m/z 800-1400. Deconvolute (MS) Maximum Entropy: mass range 19,000-21,000 Daltons; Mass step 1.0 Da; S/N threshold 20.0; Use limited m/z range 800-1400; adduct proton; isotope peak width automatic; minimum consecutive charge states 5. […]

Setting [5] is: 5 min compound pre-incubation, read-out: GDP KRAS G12C 5 min Coupled Exchange IC50 IP.
The mark [6] stands for this setting: 20 h compound pre-incubation, read-out: GDP KRAS G12C 20 h Coupled Exchange IC50 IP.

Read-outs that look alike come from different tables or passages of the source. A value given as a limit tells only on which side of the number the result lay.

For orientation: IC50 means the concentration that gives 50% inhibition.

Sequence of GDP-bound KRAS protein (aa 1-169) G12D/C118A (P01116 other isoform, or with tags, fused parts or gaps G12D/C118A): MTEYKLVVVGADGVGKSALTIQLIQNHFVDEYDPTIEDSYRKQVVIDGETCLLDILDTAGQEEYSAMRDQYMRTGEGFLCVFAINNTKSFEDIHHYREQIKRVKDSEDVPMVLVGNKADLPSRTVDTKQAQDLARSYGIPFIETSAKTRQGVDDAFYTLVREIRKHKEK
Sequence of GDP-bound KRAS protein (aa 1-169) G12C/C118A (P01116 other isoform, or with tags, fused parts or gaps G12C/C118A): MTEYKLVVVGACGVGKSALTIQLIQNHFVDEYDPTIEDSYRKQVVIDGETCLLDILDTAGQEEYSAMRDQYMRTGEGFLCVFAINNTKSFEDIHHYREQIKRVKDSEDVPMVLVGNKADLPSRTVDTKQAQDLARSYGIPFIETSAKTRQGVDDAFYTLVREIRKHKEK

As for `Cc1ccnc(C(C)C)c1-n1c(=O)nc(N2CCN(C(=O)C=O)C[C@@H]2C)c2cc(Cl)c(-c3ccccc3F)nc21` [Example 4, (S)-2-(4-(6-chloro-7-(2-fluorophenyl)-1-(2-isopropyl-4-methylpyridin-3-yl)-2-oxo-1,2-dihydropyrido[2,3-d]pyrimidin-4-yl)-3-methylpiperazin-1-yl)-2-oxoacetaldehyde], the IC50 in data set [1] was found to be 0.711 µM.

As to `COC(=O)/C=C/C(=O)N1CCN(c2nc(=O)n(-c3c(C)ccnc3C(C)C)c3nc(-c4ccccc4F)c(Cl)cc23)[C@@H](C)C1` [Example 5, Methyl (S,E)-4-(4-(6-chloro-7-(2-fluorophenyl)-1-(2-isopropyl-4-methylpyridin-3-yl)-2-oxo-1,2-dihydropyrido[2,3-d]pyrimidin-4-yl)-3-methylpiperazin-1-yl)-4-oxobut-2-enoate], the IC50 is 0.095 µM in data set [2] (setting [5]), 0.026 µM in data set [2] (setting [6]), more than 250 µM in data set [3] and 0.061 µM in data set [1].

`CCOC(=O)[C@@H]1O[C@H]1C(=O)N1CCN(c2nc(=O)n(-c3c(C)ccnc3C(C)C)c3nc(-c4ccccc4F)c(Cl)cc23)[C@@H](C)C1` [Example 19, Ethyl (2R,3R)-3-((S)-4-(6-chloro-7-(2-fluorophenyl)-1-(2-isopropyl-4-methylpyridin-3-yl)-2-oxo-1,2-dihydropyrido[2,3-d]pyrimidin-4-yl)-3-methylpiperazine-1-carbonyl)oxirane-2-carboxylate]: the IC50 in data set [2] (setting [5]) was 0.216 µM; in data set [2] (setting [6]) it was 0.005 µM; in data set [3], more than 250 µM; in data set [1], 0.096 µM. Also, the “GDP-KRAS G12D RF-MS 100 μM 20 h Relative % Bound” value in data set [4] is 3.4%.

In the case of `Cc1ccnc(C(C)C)c1-n1c(=O)nc(N2C[C@@H](C)N(C(=O)[C@H]3CO3)C[C@@H]2C)c2cc(Cl)c(-c3c(N)cccc3F)nc21` [Example 37, 7-(2-Amino-6-fluorophenyl)-6-chloro-4-((2S,5R)-2,5-dimethyl-4-((R)-oxirane-2-carbonyl)piperazin-1-yl)-1-(2-isopropyl-4-methylpyridin-3-yl)pyrido[2,3-d]pyrimidin-2(1H)-one], the IC50 in data set [2] (setting [5]) was 0.56 µM; in data set [2] (setting [6]) it was 0.015 µM; in data set [3], more than 250 µM. Moreover, in data set [4], the “GDP-KRAS G12D RF-MS 100 μM 20 h Relative % Bound” value is on record as 15.8%.

Values taken from patent publication US20240190862A1 (AMGEN INC., priority 2019, published 2024).
